pIC50: −log10 of the molar value.
Experiments:
BRG-1 = target: T1, BRG-1 (Homo sapiens, UniProt P51532); experiment: ATPase catalytic activity of BRG-1, ADP-Glo in vitro biochemical assay; conditions: ATPase catalytic activity, ADP-Glo; 30 nM BRG-1, 400 μM ATP; read-out: BRG1 IC50
T1 construct: made in house; host or cells: High Five insect cells
Procedure, shortened: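 ADP produced by BRG-1 was quantified by luciferase luminescence. A 60 min room-temperature ADP-to-ATP conversion followed a 40 min ATP-depletion step.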

BRM = target: T2, BRM (Homo sapiens, UniProt P51531); experiment: ATPase catalytic activity of BRM, ADP-Glo in vitro biochemical assay; conditions: for pIC50: ATPase catalytic activity, ADP-Glo, 30 nM BRM, 400 μM ATP; for Ratio*: ratio of BRG1 IC50 to BRM IC50
T2 construct: made in house; host or cells: High Five insect cells
Procedure, shortened: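 ADP-Glo luminescence, after depletion of leftover ATP and conversion of ADP, reported the activity. The 1 h room-temperature reaction held 400 μM ATP, 20 nM salmon sperm DNA and 30 nM BRM in 20 mM Tris pH 8, 20 mM MgCl2, 50 mM NaCl, 0.1% Tween-20, 1 mM DTT.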

T1 sequence (P51532 whole entry): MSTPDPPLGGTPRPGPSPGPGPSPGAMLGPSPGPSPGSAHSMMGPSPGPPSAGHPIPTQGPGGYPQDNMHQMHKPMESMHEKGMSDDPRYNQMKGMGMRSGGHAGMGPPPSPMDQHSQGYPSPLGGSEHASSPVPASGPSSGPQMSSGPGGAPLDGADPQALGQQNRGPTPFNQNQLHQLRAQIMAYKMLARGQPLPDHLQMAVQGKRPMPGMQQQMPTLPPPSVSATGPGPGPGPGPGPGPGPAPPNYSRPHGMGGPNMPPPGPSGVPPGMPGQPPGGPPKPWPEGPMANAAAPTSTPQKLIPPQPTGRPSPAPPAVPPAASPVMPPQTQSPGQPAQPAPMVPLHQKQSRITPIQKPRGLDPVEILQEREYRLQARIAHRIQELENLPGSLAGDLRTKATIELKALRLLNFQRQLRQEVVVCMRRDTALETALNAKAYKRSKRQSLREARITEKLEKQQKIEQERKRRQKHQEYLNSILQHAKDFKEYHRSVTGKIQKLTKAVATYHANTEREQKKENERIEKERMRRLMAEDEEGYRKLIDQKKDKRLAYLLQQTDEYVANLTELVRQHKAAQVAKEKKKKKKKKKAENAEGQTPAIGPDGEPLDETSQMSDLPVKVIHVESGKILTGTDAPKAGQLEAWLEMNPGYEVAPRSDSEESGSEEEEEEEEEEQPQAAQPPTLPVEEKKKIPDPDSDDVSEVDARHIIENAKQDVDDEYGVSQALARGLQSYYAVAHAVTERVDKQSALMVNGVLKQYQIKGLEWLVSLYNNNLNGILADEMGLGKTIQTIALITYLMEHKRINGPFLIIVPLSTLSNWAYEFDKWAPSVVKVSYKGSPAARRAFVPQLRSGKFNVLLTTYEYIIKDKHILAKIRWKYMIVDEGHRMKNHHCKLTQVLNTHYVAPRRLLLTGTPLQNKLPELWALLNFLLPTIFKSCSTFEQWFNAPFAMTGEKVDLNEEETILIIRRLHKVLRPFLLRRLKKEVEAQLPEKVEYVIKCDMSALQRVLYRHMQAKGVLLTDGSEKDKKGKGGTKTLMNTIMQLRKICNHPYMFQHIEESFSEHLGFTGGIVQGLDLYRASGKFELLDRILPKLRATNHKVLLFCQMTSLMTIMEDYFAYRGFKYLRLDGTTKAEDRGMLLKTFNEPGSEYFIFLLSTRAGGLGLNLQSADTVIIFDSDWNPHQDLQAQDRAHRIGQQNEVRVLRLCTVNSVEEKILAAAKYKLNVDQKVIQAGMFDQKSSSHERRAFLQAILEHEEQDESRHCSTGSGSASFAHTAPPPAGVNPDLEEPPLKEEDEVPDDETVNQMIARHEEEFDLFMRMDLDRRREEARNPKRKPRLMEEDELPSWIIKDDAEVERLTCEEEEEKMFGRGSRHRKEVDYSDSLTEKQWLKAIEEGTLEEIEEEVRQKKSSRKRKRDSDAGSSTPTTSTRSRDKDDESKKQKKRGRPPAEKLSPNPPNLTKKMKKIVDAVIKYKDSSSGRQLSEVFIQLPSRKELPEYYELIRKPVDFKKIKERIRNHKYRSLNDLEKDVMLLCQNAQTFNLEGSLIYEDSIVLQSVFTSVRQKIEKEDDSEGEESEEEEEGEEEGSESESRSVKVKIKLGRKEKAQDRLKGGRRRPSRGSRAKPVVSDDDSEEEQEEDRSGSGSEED
T2 sequence (P51531 whole entry): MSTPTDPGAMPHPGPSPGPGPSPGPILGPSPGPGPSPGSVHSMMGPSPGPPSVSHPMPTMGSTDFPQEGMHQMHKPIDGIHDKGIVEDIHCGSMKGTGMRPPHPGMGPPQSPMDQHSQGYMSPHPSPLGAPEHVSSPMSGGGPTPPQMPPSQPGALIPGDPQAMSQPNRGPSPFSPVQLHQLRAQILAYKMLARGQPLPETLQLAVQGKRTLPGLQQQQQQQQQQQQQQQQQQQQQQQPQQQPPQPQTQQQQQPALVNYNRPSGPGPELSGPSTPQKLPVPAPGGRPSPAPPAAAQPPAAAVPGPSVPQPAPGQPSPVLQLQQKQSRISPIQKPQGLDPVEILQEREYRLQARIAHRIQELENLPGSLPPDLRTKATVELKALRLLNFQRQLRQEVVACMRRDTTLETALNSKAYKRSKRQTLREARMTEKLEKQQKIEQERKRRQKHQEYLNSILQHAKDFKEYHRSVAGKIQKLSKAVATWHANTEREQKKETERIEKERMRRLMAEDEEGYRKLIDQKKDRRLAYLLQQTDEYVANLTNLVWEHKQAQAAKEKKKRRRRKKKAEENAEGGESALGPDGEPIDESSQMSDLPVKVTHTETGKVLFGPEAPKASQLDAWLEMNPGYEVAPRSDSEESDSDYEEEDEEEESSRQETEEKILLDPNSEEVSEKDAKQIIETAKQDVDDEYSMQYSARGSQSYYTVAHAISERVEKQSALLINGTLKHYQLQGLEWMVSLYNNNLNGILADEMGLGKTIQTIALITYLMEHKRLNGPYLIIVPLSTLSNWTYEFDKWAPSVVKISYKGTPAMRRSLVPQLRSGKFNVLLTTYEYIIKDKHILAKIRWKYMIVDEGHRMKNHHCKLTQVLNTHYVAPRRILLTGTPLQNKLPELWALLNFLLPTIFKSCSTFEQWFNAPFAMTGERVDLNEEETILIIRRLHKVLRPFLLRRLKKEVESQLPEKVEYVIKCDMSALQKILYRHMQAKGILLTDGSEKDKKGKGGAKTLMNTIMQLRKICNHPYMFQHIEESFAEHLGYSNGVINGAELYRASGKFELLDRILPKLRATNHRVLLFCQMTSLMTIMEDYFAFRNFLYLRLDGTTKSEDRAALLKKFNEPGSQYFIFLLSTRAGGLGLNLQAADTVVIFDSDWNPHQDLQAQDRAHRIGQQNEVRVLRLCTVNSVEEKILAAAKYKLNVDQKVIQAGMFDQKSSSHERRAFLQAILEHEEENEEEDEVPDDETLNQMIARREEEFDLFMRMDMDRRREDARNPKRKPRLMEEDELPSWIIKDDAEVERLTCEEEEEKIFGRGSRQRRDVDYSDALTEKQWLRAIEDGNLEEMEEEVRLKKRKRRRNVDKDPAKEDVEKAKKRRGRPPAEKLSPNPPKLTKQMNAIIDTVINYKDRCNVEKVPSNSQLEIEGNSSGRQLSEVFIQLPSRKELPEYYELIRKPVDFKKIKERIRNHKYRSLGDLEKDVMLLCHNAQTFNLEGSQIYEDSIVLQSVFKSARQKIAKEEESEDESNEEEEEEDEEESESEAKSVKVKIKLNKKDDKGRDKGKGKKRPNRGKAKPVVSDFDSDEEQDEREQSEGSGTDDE

Compound	pIC50 (BRG-1)	pIC50 (BRM)	Ratio* (BRM)
O=C(NCc1cc2nc(N3CCCc4cc(F)c(F)cc43)ccc2cn1)c1ccc2c(c1)S(=O)(=O)CCOC2 [Compound 625]	6.29	7.44	14.05
COCc1nc2c(cc1C)CCCN2c1ccc2cnc(CNC(=O)c3ccc4c(c3)S(=O)(=O)CCOC4)cc2n1 [Compound 626]	6.34	7.70	23.08
C[C@@H]1CN(c2cccc(-c3ccc4cnc(CNC(=O)c5ccc6c(c5)S(=O)(=O)CCOCC6)cc4n3)n2)C[C@H](C)O1 [Compound 627]	8.30	8.41	1.28
C[C@@H]1CN(c2cccc(-c3ccc4cnc(CNC(=O)c5ccc6c(c5)S(=O)(=O)CCCOC6)cc4n3)n2)C[C@H](C)O1 [Compound 628]	8.01	8.57	3.60
COc1c(C)cnc2c1CCCN2c1ccc2cnc(CNC(=O)c3ccc4c(c3)S(=O)(=O)CCOC4)cc2n1 [Compound 629]	7.07	8.00	8.49
O=C(NCc1cc2nc(N3CCCc4ccc(C5CCOC5)nc43)ccc2cn1)c1ccc2c(c1)S(=O)(=O)CCOC2 (stereo not drawn) [Compound 630]	5.94	7.32	24.14
Cc1cc2c(nc1C1CC1)N(c1ccc3cnc(CNC(=O)c4ccc5c(c4)S(=O)(=O)CCOC5)cc3n1)CCC2 [Compound 632]	5.95	7.23	19.38
CCO[C@@H](C)c1ccc2c(n1)N(c1ccc3cnc(CNC(=O)c4ccc5c(c4)S(=O)(=O)CCOC5)cc3n1)CCC2 [Compound 635]	5.60	6.78	15.08
CCO[C@H](C)c1ccc2c(n1)N(c1ccc3cnc(CNC(=O)c4ccc5c(c4)S(=O)(=O)CCOC5)cc3n1)CCC2 [Compound 636]	5.37	6.57	15.73
COc1cnc2c(c1C)CCCN2c1ccc2cnc(CNC(=O)c3ccc4c(c3)S(=O)(=O)CCOC4)cc2n1 [Compound 637]	6.68	7.70	10.34
COC[C@H]1COc2c(-c3ccc4cnc(CNC(=O)c5ccc6c(c5)S(=O)(=O)CCOC6)cc4n3)cccc2N1C [Compound 638]	6.05	6.64	3.90
COC[C@@H]1COc2c(-c3ccc4cnc(CNC(=O)c5ccc6c(c5)S(=O)(=O)CCOC6)cc4n3)cccc2N1C [Compound 639]	6.11	6.99	7.66
O=C(NCc1cc2nc(N3CCCC4CCCCC43)ccc2cn1)c1ccc2c(c1)S(=O)(=O)CCOC2 (stereo not drawn) [Compound 640]	5.36	6.21	7.16
C[C@@H]1CN(c2cccc(-c3ccc4cnc(CNC(=O)c5cc(F)c6c(c5)S(=O)(=O)[C@H](C)CN6C)cc4n3)n2)C[C@H](C)O1 [Compound 642]	5.53	6.81	18.87
O=C(NCc1cc2nc(N3CCCc4ccc(OC(F)F)nc43)ccc2cn1)c1ccc2c(c1)S(=O)(=O)CCOC2 [Compound 643]	6.05	6.97	8.21
O=C(NCc1cc2nc(N3CCCc4ccc(OC5CC5)cc43)ccc2cn1)c1ccc2c(c1)S(=O)(=O)CCOC2 [Compound 644]	6.77	8.19	26.34
O=C(NCc1cc2nc(N3CCOc4cc(Cl)cnc43)ccc2cn1)c1ccc2c(c1)S(=O)(=O)CCOC2 [Compound 645]	6.77	8.01	17.38
C[C@H]1COCc2ccc(C(=O)NCc3cc4nc(N5CCOc6cc(Cl)cnc65)ccc4cn3)cc2S1(=O)=O [Compound 646]	6.61	7.92	20.44
COc1cccc2c1CCN2c1ccc2cnc(CNC(=O)c3ccc4c(c3)S(=O)(=O)CCOC4)cc2n1 [Compound 647]	6.43	7.25	6.61
C[C@@H]1CN(c2cccc(-c3ccc4cnc(CNC(=O)c5cc6c(cc5F)COCCS6(=O)=O)cc4n3)n2)C[C@H](C)O1 [Compound 648]	7.71	8.30	3.85
CC1CN(c2ccc3cnc(CNC(=O)c4ccc5c(c4)S(=O)(=O)CCOC5)cc3n2)c2ncccc2N1C (stereo not drawn) [Compound 649]	6.12	6.90	5.93
C[C@H]1COCc2ccc(C(=O)NCc3cc4nc(N5CCCc6cc(N(C)C)cnc65)ccc4cn3)cc2S1(=O)=O [Compound 650]	6.94	7.90	9.04
COCCc1ccc2c(n1)N(c1ccc3cnc(CNC(=O)c4ccc5c(c4)S(=O)(=O)CCOC5)cc3n1)CCC2 [Compound 651]	5.77	7.26	30.77
